Results on 32 compounds are retold here after patent US8846698B2, “Pyrrolo[2,3-d]pyrimidine tropomysin-related kinase inhibitors” (Pfizer Limited, priority 2011, dated 2014).

What is called IC50 is the point on the concentration scale where inhibition reaches its midpoint.

Chain of TRKA (P04629 441-796): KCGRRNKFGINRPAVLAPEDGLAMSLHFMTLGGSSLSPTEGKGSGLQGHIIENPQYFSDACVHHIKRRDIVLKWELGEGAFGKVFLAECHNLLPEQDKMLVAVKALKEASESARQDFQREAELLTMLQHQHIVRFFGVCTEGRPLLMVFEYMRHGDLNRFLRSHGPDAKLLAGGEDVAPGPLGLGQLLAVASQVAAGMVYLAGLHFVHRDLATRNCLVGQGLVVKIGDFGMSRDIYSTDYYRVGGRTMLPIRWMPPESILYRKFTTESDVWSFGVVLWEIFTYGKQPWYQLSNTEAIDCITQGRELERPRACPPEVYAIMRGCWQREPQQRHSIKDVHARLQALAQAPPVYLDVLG

The assay concerns the target TRKA (Homo sapiens (Human), UniProt P04629). As to the kind of experiment: Isolated TRK enzyme assay (HTRF KinEASE-TK), TRKA. The format is biochemical. The note with it: read-out: Trka enzyme (IC50). (In general: TR-FRET usually uses a lanthanide donor and a delayed reading to cut background.)
In the case of `CC(C)n1cc(C(=O)c2cncc(NC(=O)c3cn(C)cn3)c2)c2cncnc21` [Example 465, 1-Methyl-1H-imidazole-4-carboxylic acid [5-(7-isopropyl-7H-pyrrolo[2,3-d]pyrimidine-5-carbonyl)-pyridin-3-yl]-amide], the IC50 was determined as 2130 nM.

In the case of `CC(C)n1cc(C(=O)c2cncc(NC(=O)c3ccc(Cl)cn3)c2)c2cncnc21` [Example 466, 5-Chloro-pyridine-2-carboxylic acid[5-(7-isopropyl-7H-pyrrolo[2,3-d]pyrimidine-5-carbonyl)-pyridin-3-yl]-amide], the IC50 is 400 nM. As to `CC(C)n1cc(C(=O)c2cncc(NC(=O)c3ccc4cccnc4n3)c2)c2cncnc21` [Example 467, 1,8-Naphthyridine-2-carboxylic acid[5-(7-isopropyl-7H-pyrrolo[2,3-d]pyrimidine-5-carbonyl)-pyridin-3-yl]-amide], the IC50 is 538 nM. For the compound `CC(C)n1cc(C(=O)c2cncc(NC(=O)c3nccn3C)c2)c2cncnc21` [Example 468, 1-Methyl-1H-imidazole-2-carboxylic acid [5-(7-isopropyl-7H-pyrrolo[2,3-d]pyrimidine-5-carbonyl)-pyridin-3-yl]-amide], the IC50 is 5100 nM.

As to `COCc1cc(C(=O)Nc2cncc(C(=O)c3cn(C(C)C)c4ncncc34)c2)no1` [Example 469, 5-Methoxymethyl-isoxazole-3-carboxylic acid [5-(7-isopropyl-7H-pyrrolo[2,3-d]pyrimidine-5-carbonyl)-pyridin-3-yl]-amide], the IC50 was found to be 523 nM.

With `CC(C)n1cc(C(=O)c2cncc(NC(=O)c3nncc4ccccc34)c2)c2cncnc21` [Example 470, Phthalazine-1-carboxylic acid [5-(7-isopropyl-7H-pyrrolo[2,3-d]pyrimidine-5-carbonyl)-pyridin-3-yl]-amide], the IC50 was 166 nM. The figure for `CC(C)n1cc(C(=O)c2cncc(NC(=O)c3cnn4c3CCC4)c2)c2cncnc21` [Example 471, 5,6-Dihydro-4H-pyrrolo[1,2-b]pyrazole-3-carboxylic acid [5-(7-isopropyl-7H-pyrrolo[2,3-d]pyrimidine-5-carbonyl)-pyridin-3-yl]-amide] is 751 nM. For the compound `CC(C)n1cc(C(=O)c2cncc(NC(=O)c3ncncc3Br)c2)c2cncnc21` [Example 472, 5-Bromo-pyrimidine-4-carboxylic acid [5-(7-isopropyl-7H-pyrrolo[2,3-d]pyrimidine-5-carbonyl)-pyridin-3-yl]-amide], the IC50 turned out to be 1720 nM. The figure for `CC(C)n1cc(C(=O)c2cncc(NC(=O)c3ccc(C#N)nc3)c2)c2cncnc21` [Example 473, 6-Cyano-N-[5-(7-isopropyl-7H-pyrrolo[2,3-d]pyrimidine-5-carbonyl)-pyridin-3-yl]-nicotinamide] is 7280 nM; for `CC(C)n1cc(C(=O)c2cncc(NC(=O)c3cnn4cccnc34)c2)c2cncnc21` [Example 474, Pyrazolo[1,5-a]pyrimidine-3-carboxylic acid [5-(7-isopropyl-7H-pyrrolo[2,3-d]pyrimidine-5-carbonyl)-pyridin-3-yl]-amide] it is 4420 nM.

In the case of `Cc1n[nH]c2ncc(C(=O)Nc3cncc(C(=O)c4cn(C(C)C)c5ncncc45)c3)cc12` [Example 475, 3-Methyl-1H-pyrazolo[3,4-b]pyridine-5-carboxylic acid [5-(7-isopropyl-7H-pyrrolo[2,3-d]pyrimidine-5-carbonyl)-pyridin-3-yl]-amide], the IC50 was 643 nM. Consider `Cc1cccc2cc(C(=O)Nc3cncc(C(=O)c4cn(C(C)C)c5ncncc45)c3)nn12` [Example 476, 7-Methyl-pyrazolo[1,5-a]pyridine-2-carboxylic acid [5-(7-isopropyl-7H-pyrrolo[2,3-d]pyrimidine-5-carbonyl)-pyridin-3-yl]-amide], for which the IC50 was determined as 65 nM. Turning to `Cc1ocnc1C(=O)Nc1cncc(C(=O)c2cn(C(C)C)c3ncncc23)c1` [Example 477, 5-Methyl-oxazole-4-carboxylic acid [5-(7-isopropyl-7H-pyrrolo[2,3-d]pyrimidine-5-carbonyl)-pyridin-3-yl]-amide], the IC50 turned out to be 3030 nM. The figure for `CC(C)n1cc(C(=O)c2cncc(NC(=O)c3cc4cscc4cn3)c2)c2cncnc21` [Example 478, Thieno[3,4-c]pyridine-6-carboxylic acid [5-(7-isopropyl-7H-pyrrolo[2,3-d]pyrimidine-5-carbonyl)-pyridin-3-yl]-amide] is 587 nM. Regarding `Cc1cc(C(=O)Nc2cncc(C(=O)c3cn(C(C)C)c4ncncc34)c2)nc(C)n1` [Example 479, 2,6-Dimethyl-pyrimidine-4-carboxylic acid [5-(7-isopropyl-7H-pyrrolo[2,3-d]pyrimidine-5-carbonyl)-pyridin-3-yl]-amide], the IC50 stood at 2160 nM. In the case of `CC(C)n1cc(C(=O)c2cncc(NC(=O)c3cc(C#N)ccn3)c2)c2cncnc21` [Example 480, 4-Cyano-pyridine-2-carboxylic acid [5-(7-isopropyl-7H-pyrrolo[2,3-d]pyrimidine-5-carbonyl)-pyridin-3-yl]-amide], the IC50 was 531 nM. The figure for `COCc1cc(C(=O)Nc2cncc(C(=O)c3cn(C(C)C)c4ncncc34)c2)nn1C` [Example 481, 5-Methoxymethyl-1-methyl-1H-pyrazole-3-carboxylic acid [5-(7-isopropyl-7H-pyrrolo[2,3-d]pyrimidine-5-carbonyl)-pyridin-3-yl]-amide] is 313 nM.

On to `CC(C)n1cc(C(=O)c2cncc(NC(=O)c3nc(Cl)c(Cl)[nH]3)c2)c2cncnc21` [Example 482, 4,5-Dichloro-1H-imidazole-2-carboxylic acid [5-(7-isopropyl-7H-pyrrolo[2,3-d]pyrimidine-5-carbonyl)-pyridin-3-yl]-amide], for which the IC50 amounted to 6860 nM. On to `COc1cc(C(=O)Nc2cncc(C(=O)c3cn(C(C)C)c4ncncc34)c2)nc2c(C)nccc12` [Example 483, 4-Methoxy-8-methyl-1,7-naphthyridine-2-carboxylic acid [5-(7-isopropyl-7H-pyrrolo[2,3-d]pyrimidine-5-carbonyl)-pyridin-3-yl]-amide], for which the IC50 is 118 nM. Take `CCc1nc(C)c(C(=O)Nc2cncc(C(=O)c3cn(C(C)C)c4ncncc34)c2)o1` [Example 484, 2-Ethyl-4-methyl-oxazole-5-carboxylic acid [5-(7-isopropyl-7H-pyrrolo[2,3-d]pyrimidine-5-carbonyl)-pyridin-3-yl]-amide]: the IC50 was determined as 192 nM. Next, `COc1cncc(C(=O)Nc2cncc(C(=O)c3cn(C(C)C)c4ncncc34)c2)c1` [Example 485, N-[5-(7-Isopropyl-7H-pyrrolo[2,3-d]pyrimidine-5-carbonyl)-pyridin-3-yl]-5-methoxy-nicotinamide]: 20 nM. The figure for `CC(C)n1cc(C(=O)c2cncc(NC(=O)c3cnc4[nH]ncc4c3)c2)c2cncnc21` [Example 486, 1H-Pyrazolo[3,4-b]pyridine-5-carboxylic acid [5-(7-isopropyl-7H-pyrrolo[2,3-d]pyrimidine-5-carbonyl)-pyridin-3-yl]-amide] is 805 nM; for `CC(C)n1cc(C(=O)c2cncc(NC(=O)c3cnc4[nH]cnc4c3)c2)c2cncnc21` [Example 487, 3H-Imidazo[4,5-b]pyridine-6-carboxylic acid [5-(7-isopropyl-7H-pyrrolo[2,3-d]pyrimidine-5-carbonyl)-pyridin-3-yl]-amide] it is 9800 nM.

Regarding `COc1nccn2cc(C(=O)Nc3cncc(C(=O)c4cn(C(C)C)c5ncncc45)c3)nc12` [Example 488, 8-Methoxy-imidazo[1,2-a]pyrazine-2-carboxylic acid [5-(7-isopropyl-7H-pyrrolo[2,3-d]pyrimidine-5-carbonyl)-pyridin-3-yl]-amide], the IC50 was determined as 64.6 nM. Next, `CC(C)n1cc(C(=O)c2cncc(NC(=O)c3ccncc3)c2)c2cncnc21` [Example 489, N-[5-(7-Isopropyl-7H-pyrrolo[2,3-d]pyrimidine-5-carbonyl)-pyridin-3-yl]-isonicotinamide]: 9800 nM; `Cc1cccnc1C(=O)Nc1cncc(C(=O)c2cn(C(C)C)c3ncncc23)c1` [Example 490, 3-Methyl-pyridine-2-carboxylic acid[5-(7-isopropyl-7H-pyrrolo[2,3-d]pyrimidine-5-carbonyl)-pyridin-3-yl]-amide]: 9800 nM.

For `CC(C)n1cc(C(=O)c2cncc(NC(=O)c3cnc4occc4c3)c2)c2cncnc21` [Example 491, Furo[2,3-b]pyridine-5-carboxylic acid [5-(7-isopropyl-7H-pyrrolo[2,3-d]pyrimidine-5-carbonyl)-pyridin-3-yl]-amide], the IC50 was found to be 1410 nM. Take `CC(C)c1nnc2ccc(C(=O)Nc3cncc(C(=O)c4cn(C(C)C)c5ncncc45)c3)cn12` [Example 492, 3-Isopropyl-1,2,4-triazolo[4,3-a]pyridine-6-carboxylic acid [5-(7-isopropyl-7H-pyrrolo[2,3-d]pyrimidine-5-carbonyl)-pyridin-3-yl]-amide]: the IC50 turned out to be 1690 nM.

Regarding `CC(C)n1cc(C(=O)c2cncc(NC(=O)c3cocn3)c2)c2cncnc21` [Example 493, Oxazole-4-carboxylic acid [5-(7-isopropyl-7H-pyrrolo[2,3-d]pyrimidine-5-carbonyl)-pyridin-3-yl]-amide], the IC50 is 848 nM. The figure for `CC(C)n1cc(C(=O)c2cncc(NC(=O)c3ncccc3Cl)c2)c2cncnc21` [Example 494, 3-Chloro-pyridine-2-carboxylic acid[5-(7-isopropyl-7H-pyrrolo[2,3-d]pyrimidine-5-carbonyl)-pyridin-3-yl]-amide] is 2570 nM; for `CC(C)n1cc(C(=O)c2cncc(NC(=O)c3cnc4nccn4c3)c2)c2cncnc21` [Example 495, Imidazo[1,2-a]pyrimidine-6-carboxylic acid [5-(7-isopropyl-7H-pyrrolo[2,3-d]pyrimidine-5-carbonyl)-pyridin-3-yl]-amide] it is 9800 nM.

For the compound `CC(C)n1cc(C(=O)c2cncc(NC(=O)c3cc(C4CC4)on3)c2)c2cncnc21` [Example 496, 5-Cyclopropyl-isoxazole-3-carboxylic acid [5-(7-isopropyl-7H-pyrrolo[2,3-d]pyrimidine-5-carbonyl)-pyridin-3-yl]-amide], the half-inhibitory concentration (IC50) worked out at 199 nM.
